Results published in publication PMC12525688, “Anti-Helicobacter pylori Activity and Gastroprotective Effects of Diacetylcurcumin and Four Metal Derivatives” (Molecules, 2025).
Read-outs that look alike come from different tables or passages of the source.

What was measured:
[1] = molecular target: T1, Helicobacter pylori urease (Helicobacter pylori, UniProt P69996); test: Berthelot colorimetric urease activity assay with lysate supernatant (partially purified urease); format: biochemical
T1 construct: gene ureB; native urease from supernatant of sonicated H. pylori ATCC 43504; with urease subunit alpha (UreA)
T1 sequence (P14916 whole entry): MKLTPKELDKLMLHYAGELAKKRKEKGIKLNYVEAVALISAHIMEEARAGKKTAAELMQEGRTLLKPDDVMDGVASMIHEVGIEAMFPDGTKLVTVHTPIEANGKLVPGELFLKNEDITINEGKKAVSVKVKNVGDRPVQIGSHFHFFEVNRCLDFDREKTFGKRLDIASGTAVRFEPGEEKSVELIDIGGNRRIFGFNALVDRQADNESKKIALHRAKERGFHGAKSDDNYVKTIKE
T1 sequence (P69996 whole entry): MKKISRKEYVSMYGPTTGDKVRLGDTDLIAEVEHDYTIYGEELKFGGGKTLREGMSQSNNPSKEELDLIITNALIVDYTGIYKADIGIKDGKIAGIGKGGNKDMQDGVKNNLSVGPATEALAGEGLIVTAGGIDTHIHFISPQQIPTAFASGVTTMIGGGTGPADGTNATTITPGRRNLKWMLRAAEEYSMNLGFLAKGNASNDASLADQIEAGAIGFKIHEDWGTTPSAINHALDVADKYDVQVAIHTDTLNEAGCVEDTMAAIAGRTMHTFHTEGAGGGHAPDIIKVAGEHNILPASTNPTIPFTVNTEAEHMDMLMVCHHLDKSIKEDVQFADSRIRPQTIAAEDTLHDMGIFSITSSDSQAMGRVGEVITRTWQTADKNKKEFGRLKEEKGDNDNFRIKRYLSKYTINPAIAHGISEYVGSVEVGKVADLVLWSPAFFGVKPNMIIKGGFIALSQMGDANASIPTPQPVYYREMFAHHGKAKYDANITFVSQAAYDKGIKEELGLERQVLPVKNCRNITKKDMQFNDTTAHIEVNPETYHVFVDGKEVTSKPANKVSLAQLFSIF

E. coli DNA gyrase = molecular target: T2, E. coli DNA gyrase (Escherichia coli, UniProt P0AES4+P0AES6); test: DNA supercoiling assay (agarose gel), […] inhibition at […]; format: biochemical
T2 construct: gene gyrA; DNA gyrase of the TopoGEN E. coli DNA Gyrase Drug Screening kit; with DNA gyrase subunit B (GyrB)
T2 sequence (P0AES4 2-875, one chain of several): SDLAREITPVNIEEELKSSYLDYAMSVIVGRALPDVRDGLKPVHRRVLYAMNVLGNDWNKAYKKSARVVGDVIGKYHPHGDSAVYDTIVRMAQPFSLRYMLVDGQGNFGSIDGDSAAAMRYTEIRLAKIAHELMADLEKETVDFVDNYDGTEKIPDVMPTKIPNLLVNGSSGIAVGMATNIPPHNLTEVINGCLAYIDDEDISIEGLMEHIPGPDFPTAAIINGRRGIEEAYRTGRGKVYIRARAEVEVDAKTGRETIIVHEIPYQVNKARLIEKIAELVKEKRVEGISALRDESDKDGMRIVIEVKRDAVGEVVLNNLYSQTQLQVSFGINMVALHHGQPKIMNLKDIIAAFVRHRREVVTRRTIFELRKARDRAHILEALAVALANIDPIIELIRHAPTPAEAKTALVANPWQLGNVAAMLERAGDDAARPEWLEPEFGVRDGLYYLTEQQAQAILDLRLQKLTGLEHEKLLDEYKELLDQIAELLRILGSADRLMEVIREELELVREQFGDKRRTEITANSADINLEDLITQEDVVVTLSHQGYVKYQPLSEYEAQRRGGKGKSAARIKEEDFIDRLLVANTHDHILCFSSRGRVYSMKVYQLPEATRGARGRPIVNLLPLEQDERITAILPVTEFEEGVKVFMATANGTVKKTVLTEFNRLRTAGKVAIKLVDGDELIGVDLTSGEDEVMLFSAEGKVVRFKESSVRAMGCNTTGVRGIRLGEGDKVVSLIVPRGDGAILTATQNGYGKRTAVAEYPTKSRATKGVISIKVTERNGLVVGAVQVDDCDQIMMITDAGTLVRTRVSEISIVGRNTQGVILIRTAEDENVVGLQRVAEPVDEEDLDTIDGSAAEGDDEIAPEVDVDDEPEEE

| Compound | IC50 [1] [µM] | other results |
| --- | --- | --- |
| COc1cc(/C=C/C(=O)C=C(/C=C/c2ccc(OC(C)=O)c(OC)c2)[O][Cu][O]C(=CC(=O)/C=C/c2ccc(OC(C)=O)c(OC)c2)/C=C/c2ccc(OC(C)=O)c(OC)c2)ccc1OC(C)=O [DAC2-Cu] | 20.4 | – |
| CC(=O)NO [AHA, acetohydroxamic acid] | – | IC50 ([1]; read-out: IC50): 488 µM |
| O=C(O)c1cn(C2CC2)c2cc(N3CCNCC3)c(F)cc2c1=O [ciprofloxacin] | – | inhibition at 3 µM (E. coli DNA gyrase): 100% |
| COc1cc(/C=C/C(=O)C=C(/C=C/c2ccc(OC(C)=O)c(OC)c2)[O][Zn][O]C(=CC(=O)/C=C/c2ccc(OC(C)=O)c(OC)c2)/C=C/c2ccc(OC(C)=O)c(OC)c2)ccc1OC(C)=O [DAC2-Zn] | 12.4 | – |
